In a melting point compilation (Tetko et al.; mined from patent text by program, amines drawn as free bases though some values may be those of a salt) one finds melting point data, which are given here for 64 molecules.

Each structure is given as a SMILES string.

The melting point is the temperature, or range, at which the solid turns liquid. Consider `O=C(CCCN1CCC2(CC(O)c3c(Cl)cccc32)C1)c1ccc(F)cc1` (centres undefined), for which the melting point is 161 to 163 °C.

Regarding `CC(C)N1C(=O)NC(c2ccccc2)c2cc3c(cc21)OCO3` (centres undefined), the melting point was in the range of 165 to 168 °C. `COc1cc(C=C2SC(=O)NC2=O)ccc1OCCN1c2ccccc2Sc2ccccc21` yielded a melting point of 210 to 212 °C.

`O=C1c2ccccc2C(=O)N1Cc1cccc(-c2nc(=O)c3ccccc3s2)n1` displayed a melting point of 280 to 281 °C. Consider `CCOC(=O)c1oc2ccc(Cl)cc2c1O`, for which the melting point fell in the range of 100 to 102 °C. In the case of `CC(C)(C)c1cc(I)c2oncc2c1` it was 106 to 109 °C; in that of `O=c1c2c(Cc3ccccc3[N+](=O)[O-])n[nH]c2c2cccnc2n1-c1cccc(OC(F)(F)F)c1`, 274 to 276 °C; in that of `c1cc(-c2n[nH]c3c2Cc2ccc(CN4CCCC4)cc2-3)cs1`, 133 to 134 °C. With `O=C(O)Cc1c(C(=O)c2cc3c(cn2)CCCC3)[nH]c2cc(Cl)ccc12`, the melting point was found to be 225 °C. In the case of `c1ccc(Cn2cnc3cncnc32)cc1` it was 99 to 100 °C. Next, `CS(=O)(=O)c1nccc(-c2nc(=O)c3ccccc3s2)n1`: 270 °C; `CCOC(=O)/C(C#N)=C(\N)C(CC)CC`: 87 °C; `COC(=O)c1cccnc1C(=O)CC(=O)c1ccccc1`: 87 °C. Next, `O=P1(c2ccccc2)OCc2ccccc21` (centres undefined): 99 to 101 °C. On to `COC(=O)COc1c(CCC(C)C)c(OC)cc(OC)c1C(=O)CCc1ccc(O)c(OC)c1`, for which the melting point was 89 to 90 °C. In the case of `COC(=O)c1ccc(CN2CCN(S(=O)(=O)c3ccccc3)CC2)cc1` it was 145 to 146 °C; in that of `O=C1Nc2cccnc2N(CC#CCN2CCOCC2)c2ccccc21`, 168 °C.

`CCCCNC(=O)NS(=O)(=O)CCc1c(C2CC2)nn(C)c1-n1ccc2cc(Cl)cnc21` gave a melting point of 167 to 168 °C. Next, `Cc1ncccc1NC(=NC#N)NC(NC(=O)CCCCc1ccccc1)C(C)(C)C` (centres undefined): 133 to 134 °C; `CC(C)(Oc1ccc(CCNC(=O)C=Cc2ccccc2Cl)cc1)C(=O)O`: 145 to 146 °C; `COc1ccc(C(=O)Nc2ccccc2)cc1NCc1cccc(C(=O)O)c1`: 210 to 212 °C. In the case of `Cc1c(C(=O)NC(C)(C)CO)cccc1[N+](=O)[O-]` it was 144 to 145 °C; in that of `CCN1C(=O)C(C)(C)C(=O)N(C)c2cc(CN(CCn3ccc4oc(C)cc4c3=O)Cc3cccnc3)ccc21`, 124 to 127 °C; in that of `Clc1cnc(Br)c(Br)c1`, 39.5 to 43 °C. Next, `CC1CCC(C(=O)Nc2ccc(-c3ncc(-c4ccc(NC(=O)C5CCCCCC5)cc4)[nH]3)cc2)CC1` (centres undefined): 244 to 246 °C; `CCCc1c(OCc2cccc(C(=O)NCCCc3cccnc3)c2)ccc(C(C)=O)c1O`: 110 to 112 °C.

Molecule `O=S(=O)(c1ccccc1)c1nccc2c1CCCC2` showed a melting point of 109 to 112 °C. In the case of `O=C1c2cccc3c(N4CCCC4)c(F)cc(c23)C(=O)N1O` it was 224 to 226 °C. In the case of `CC(C)C1(C)NC(c2nc3ccccc3cc2C=O)=NC1=O` (centres undefined) it was 226 to 227 °C.

As for `O=C(Nc1cccc(-c2nnn[nH]2)c1)Oc1ccc([N+](=O)[O-])cc1`, the melting point is 186 to 188 °C. Next, `N=C(N)c1ccc(-c2ccc(-n3cc(CCC(=O)O)c4ccccc43)nn2)cc1`: 288 to 292 °C; `Cc1nc(N)nc(N)c1N1CCN(Cc2ccccc2)CC1`: 209 to 210 °C; `CC(=O)Oc1cccc2c1OC(C)(C)C2`: 49 to 50 °C.

In turn, `OCC(O)CNc1ncnc2c1ncn2C1OC(CO)C(O)C1O` (centres undefined) displayed a melting point of 164 to 165 °C. Next, `COc1cc(C[C@H](NC(=O)OC(C)(C)C)C(=O)O)cc(OC)c1OC`: 76 to 80 °C; `CCOC(=O)c1cnc2ccc3nc(Cl)sc3c2c1O`: more than 300 °C; `CCCCCCCCCCCC(=O)OC1CC(c2ccccc2)N(O)C(c2ccccc2)C1C` (centres undefined): 84 to 91 °C.

In the case of `COc1ccc(Cl)cc1C1=NCCO1`, the melting point was 100 to 101 °C. Turning to `COC(=O)c1ccc(S(C)(=O)=O)c(C2=NOC(C)C2)c1Cl` (centres undefined), the melting point is 130 to 135 °C.

In the case of `O=C(Cc1ccc(Oc2ccccc2)cc1)NNC(=O)c1ccc(O)cc1`, the melting point is 181 to 183 °C.

The molecule `Oc1cc(-c2ccccc2)nc2ccc(Cl)cc12` returned a melting point of more than 350 °C. Next, `COc1cc(N)c(Cl)cc1C(=O)N[C@H]1CCN(CCCNc2ncccn2)C[C@H]1OC` (relative stereo): 158 °C; `COc1cc(C(=O)O)nc(-c2cccc([N+](=O)[O-])c2)c1`: 207 to 210 °C; `CSc1noc(-c2ccc(OCCCc3ccccc3)cc2)c1C#N`: 99 to 100 °C. In the case of `Nc1ccc(C2=NNC(=O)Cc3cc4c(cc32)OCO4)c(Cl)c1` it was 238 to 240 °C; in that of `CC(C)=CCOC(C)C1CCC2=C3C=CC4C(C)(C)C(OC(=O)CCC(=O)O)CCC4(C)C3CCC21C` (centres undefined), 96 to 99 °C. Next, `O=C(CCl)Nc1cccc(NC(=O)Nc2ccc(N(CCCl)CCCl)cc2)c1`: 232 to 233 °C; `CCCc1nc(S)nc(O)c1Cc1ccc(-c2ccccc2C#N)cc1`: 191 °C; `CCOC(=O)c1cnn2c1c(Cl)nc1c(C)nn(C)c12`: 130 to 132 °C. For `COc1ccc(C(=O)Nc2ccccc2)cc1NCc1ccc([N+](=O)[O-])c(O)c1`, the melting point was 140 to 143 °C.

With `COC(=O)c1ccccc1C(=O)Nc1cc(C(F)(F)F)on1`, the melting point lay in the range of 116 to 117 °C. Next, `CC(=O)n1c(=O)n(-c2ccccc2)c(=O)n1C(C)=O`: 169 to 170 °C; `CS(=O)(=O)c1ccc(-n2nc(CNC(=O)Nc3cccc(C(F)(F)F)c3)cc2-c2ccccc2)cc1`: 108 to 113 °C; `COc1ccc2nc(-c3ccc([N+](=O)[O-])cc3)sc2c1`: 216 to 217 °C. In the case of `O=C(NCCCOc1ccncc1)c1ccccc1CO`, the melting point fell in the range of 108 to 109 °C.

Turning to `CCOCc1nc2c(N)nc3ccccc3c2n1CCCC(C)=NO`, the melting point is 220 to 223 °C. Take `CSC1C=C2C=CC=CN2N1[N+](=O)[O-]` (centres undefined): the melting point was found to be 225 °C.

As for `CC12CCC(OC(=O)c3ccc(O)cc3)CC1=CCC1C2CCC2(C)C(=NO)CCC12` (centres undefined), the melting point is 177 to 182 °C. Next, `CC(C=CC=C(C)CO)=CC=CC=C(C)C1OCC(C)(C)CO1`: 136 to 137 °C. Turning to `COc1cc2c(c(C)c1C)C(=O)CC2c1c[nH]cn1` (centres undefined), the melting point was in the range of 258 to 261 °C. Next, `N[C@@H]1CN2C(=O)N(c3cc(Cl)nc(Cl)c3)C(=O)[C@@]2(Cc2ccc(OC(F)(F)F)cc2)C1`: 151 °C; `CCCSc1sc(C(=O)OCC)c2c1-c1nc(-c3ccccc3)sc1CC2`: 125 to 126 °C; `Clc1c(-c2ccccc2)noc1NCC#CI`: 133 to 135 °C. In the case of `CCCCCCCCCCCC1Cc2c(cccc2C(=O)O)N1` (racemic) it was 105 to 108 °C.
